Test results from ChEMBL document CHEMBL4507307 (2021).

Key:
[1] = target: 5-hydroxytryptamine receptor 1E (Homo sapiens, UniProt P28566); assay: GPCRScan assay: inhibition of 5-HT1E; parameters: radioligand conc. used [nm] 2.1 – 5.0, parental cells stable HEK
[2] = target: Muscarinic acetylcholine receptor M5 (Homo sapiens) (UniProt P08912); conditions: Compound concentration 10.0 uM
[3] = target: Muscarinic acetylcholine receptor M1 (Homo sapiens, UniProt P11229); assay: GPCRScan assay: inhibition of M1; parameters: radioligand conc. used [nm] 0.3 – 1.2, parental cells stable CHO
[4] = target: D(1A) dopamine receptor (Homo sapiens, UniProt P21728); assay: GPCRScan assay: inhibition of D1; parameters: radioligand conc. used [nm] 0.6 – 1.3, parental cells HEKT
[5] = target: Alpha-1B adrenergic receptor (Homo sapiens, UniProt P35368); assay: GPCRScan assay: inhibition of Alpha1B; parameters: radioligand conc. used [nm] 0.3 – 1.0, parental cells stable HEK
[6] = target: 5-hydroxytryptamine receptor 2A (Homo sapiens, UniProt P28223); assay: GPCRScan assay: inhibition of 5-HT2A; parameters: radioligand conc. used [nm] 1.2 – 2.4, parental cells HEKT
[7] = target: Alpha-2A adrenergic receptor (Homo sapiens) (UniProt P08913); conditions: Compound concentration 10.0 uM
[8] = target: 5-hydroxytryptamine receptor 5A (Homo sapiens, UniProt P47898); conditions: Compound concentration 10.0 uM
[9] = target: Sigma non-opioid intracellular receptor 1 (Homo sapiens, UniProt Q99720); assay: GPCRScan assay: inhibition of Sigma 1; parameters: radioligand conc. used [nm] 4.0 – 5.0, parental cells HEKT
[10] = target: Alpha-1D adrenergic receptor (Homo sapiens) (UniProt P25100); conditions: Compound concentration 10.0 uM
[11] = target: 5-hydroxytryptamine receptor 1A (Homo sapiens) (UniProt P08908); conditions: Compound concentration 10.0 uM
[12] = target: Dual specificity protein kinase CLK2 (Homo sapiens, UniProt P49760); assay: NanoBRET (SGC Frankfurt) (CLK2)
[13] = target: D(3) dopamine receptor (Homo sapiens, UniProt P35462); assay: GPCRScan assay: inhibition of D3; parameters: radioligand conc. used [nm] 0.5 – 1.8, parental cells HEKT
[14] = target: Alpha-2B adrenergic receptor (Homo sapiens, UniProt P18089); assay: GPCRScan assay: inhibition of Alpha2B; parameters: radioligand conc. used [nm] 1.5 – 2.0, parental cells HEKT
[15] = target: Beta-3 adrenergic receptor (Homo sapiens, UniProt P13945); assay: GPCRScan assay: inhibition of Beta3; parameters: radioligand conc. used [nm] 0.2 – 0.5, parental cells HEK Flp-In
[16] = target: Dual specificity mitogen-activated protein kinase kinase 2 (Homo sapiens) (UniProt P36507); assay: MAP2K2 (MEK2) Kinase activity screen
[17] = target: Focal adhesion kinase 1 (Homo sapiens) (UniProt Q05397); assay: PTK2 (FAK) Kinase activity screen
[18] = target: Fibroblast growth factor receptor 1 (Homo sapiens) (UniProt P11362); assay: FGFR1 Kinase activity screen
[19] = target: Serine/threonine-protein kinase Chk1 (Homo sapiens) (UniProt O14757); assay: CHEK1 (CHK1) Kinase activity screen
[20] = target: Protein kinase C theta type (Homo sapiens) (UniProt Q04759); assay: PRKCQ (PKC theta) Kinase activity screen
[21] = target: Serine/threonine-protein kinase pim-1 (Homo sapiens) (UniProt P11309); assay: PIM1 Kinase activity screen
[22] = target: CDK7/Cyclin H/MNAT1 (Homo sapiens) (UniProt P51946+P50613+P51948); assay: CDK7/cyclin H/MNAT1 Kinase activity screen; type: protein-complex assay
[23] = target: Inhibitor of nuclear factor kappa-B kinase subunit beta (Homo sapiens) (UniProt O14920); assay: IKBKB (IKK beta) Kinase activity screen
[24] = target: Serine/threonine-protein kinase Nek1 (Homo sapiens) (UniProt Q96PY6); assay: NEK1 Kinase activity screen
[25] = target: Protein kinase C alpha type (Homo sapiens) (UniProt P17252); assay: PRKCA (PKC alpha) Kinase activity screen
[26] = target: Ephrin type-A receptor 5 (Homo sapiens) (UniProt P54756); assay: EPHA5 Kinase activity screen
[27] = target: Serine/threonine-protein kinase Chk2 (Homo sapiens) (UniProt O96017); assay: CHEK2 (CHK2) Kinase activity screen
[28] = target: Glycogen synthase kinase-3 beta (Homo sapiens) (UniProt P49841); assay: GSK3B (GSK3 beta) Kinase activity screen
[29] = target: AMP-activated protein kinase (AMPK) alpha-1/beta-1/gamma-1 (Homo sapiens) (UniProt P54619+Q9Y478+Q13131); assay: AMPK A1/B1/G1 Kinase activity screen; type: protein-complex assay
[30] = target: Serine/threonine-protein kinase B-raf (Homo sapiens) (UniProt P15056); assay: BRAF Kinase activity screen
[31] = target: Serine/threonine-protein kinase mTOR (Homo sapiens) (UniProt P42345); assay: FRAP1 (mTOR) Kinase activity screen
[32] = target: Rho-associated protein kinase 1 (Homo sapiens) (UniProt Q13464); assay: ROCK1 Kinase activity screen
[33] = target: Interleukin-1 receptor-associated kinase 4 (Homo sapiens) (UniProt Q9NWZ3); assay: IRAK4 Kinase activity screen
[34] = target: Casein kinase I isoform delta (Homo sapiens) (UniProt P48730); assay: CSNK1D (CK1 delta) Kinase activity screen
[35] = target: Mitogen-activated protein kinase 9 (Homo sapiens) (UniProt P45984); assay: MAPK9 (JNK2) Kinase activity screen
[36] = target: CDK2/Cyclin A2 (Homo sapiens) (UniProt P24941+P20248); assay: CDK2/cyclin A Kinase activity screen; type: protein-complex assay
[37] = target: Mitogen-activated protein kinase 11 (Homo sapiens) (UniProt Q15759); assay: MAPK11 (p38 beta) Kinase activity screen
[38] = target: Dual specificity tyrosine-phosphorylation-regulated kinase 4 (Homo sapiens) (UniProt Q9NR20); assay: DYRK4 Kinase activity screen
[39] = target: Calcium/calmodulin-dependent protein kinase type 1 (Homo sapiens) (UniProt Q14012); assay: CAMK1 (CaMK1) Kinase activity screen

Sequence of Alpha-1B adrenergic receptor (P35368 whole entry): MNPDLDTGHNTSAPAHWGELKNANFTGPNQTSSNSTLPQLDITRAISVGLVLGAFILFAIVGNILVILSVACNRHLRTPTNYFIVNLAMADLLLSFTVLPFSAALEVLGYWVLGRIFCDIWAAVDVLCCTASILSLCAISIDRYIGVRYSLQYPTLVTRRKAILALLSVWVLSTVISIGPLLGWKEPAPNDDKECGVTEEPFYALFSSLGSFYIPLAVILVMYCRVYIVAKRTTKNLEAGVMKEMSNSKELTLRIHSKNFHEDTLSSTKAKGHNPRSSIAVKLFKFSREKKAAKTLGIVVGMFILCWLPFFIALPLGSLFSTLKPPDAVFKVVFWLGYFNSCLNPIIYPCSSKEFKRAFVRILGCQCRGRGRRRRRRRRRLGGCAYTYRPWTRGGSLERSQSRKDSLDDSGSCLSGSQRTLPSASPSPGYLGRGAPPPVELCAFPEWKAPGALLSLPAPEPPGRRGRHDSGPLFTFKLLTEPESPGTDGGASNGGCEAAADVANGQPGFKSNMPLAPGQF
Sequence of Mitogen-activated protein kinase 9 (Homo sapiens) (P45984 whole entry, looked up): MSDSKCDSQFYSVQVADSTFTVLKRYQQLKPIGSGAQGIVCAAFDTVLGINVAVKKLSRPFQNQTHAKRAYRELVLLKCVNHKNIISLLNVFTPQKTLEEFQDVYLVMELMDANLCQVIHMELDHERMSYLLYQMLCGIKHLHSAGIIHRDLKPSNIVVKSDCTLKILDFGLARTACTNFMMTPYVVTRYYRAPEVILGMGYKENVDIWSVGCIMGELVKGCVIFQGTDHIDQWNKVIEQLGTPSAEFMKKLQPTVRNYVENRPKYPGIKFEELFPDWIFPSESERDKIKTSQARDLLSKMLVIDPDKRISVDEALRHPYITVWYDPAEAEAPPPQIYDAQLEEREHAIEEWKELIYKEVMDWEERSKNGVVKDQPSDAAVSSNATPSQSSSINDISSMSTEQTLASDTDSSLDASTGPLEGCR
Sequence of Serine/threonine-protein kinase Chk2 (Homo sapiens) (O96017 whole entry): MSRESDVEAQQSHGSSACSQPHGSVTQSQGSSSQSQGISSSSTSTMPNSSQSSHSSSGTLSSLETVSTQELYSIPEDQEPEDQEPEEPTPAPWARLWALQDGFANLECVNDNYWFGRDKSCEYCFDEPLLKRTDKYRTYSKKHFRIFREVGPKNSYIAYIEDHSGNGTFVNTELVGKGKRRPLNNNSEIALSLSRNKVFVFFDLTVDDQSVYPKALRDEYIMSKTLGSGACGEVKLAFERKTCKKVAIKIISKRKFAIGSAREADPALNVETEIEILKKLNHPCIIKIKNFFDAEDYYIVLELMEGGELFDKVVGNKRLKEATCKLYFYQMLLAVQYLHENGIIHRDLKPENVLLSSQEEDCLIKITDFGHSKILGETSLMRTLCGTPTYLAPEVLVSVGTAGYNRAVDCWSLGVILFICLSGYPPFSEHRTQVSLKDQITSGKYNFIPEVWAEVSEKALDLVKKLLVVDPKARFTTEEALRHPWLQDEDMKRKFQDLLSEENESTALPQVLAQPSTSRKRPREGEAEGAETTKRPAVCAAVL
Sequence of Fibroblast growth factor receptor 1 (Homo sapiens) (P11362 22-822 limits assumed): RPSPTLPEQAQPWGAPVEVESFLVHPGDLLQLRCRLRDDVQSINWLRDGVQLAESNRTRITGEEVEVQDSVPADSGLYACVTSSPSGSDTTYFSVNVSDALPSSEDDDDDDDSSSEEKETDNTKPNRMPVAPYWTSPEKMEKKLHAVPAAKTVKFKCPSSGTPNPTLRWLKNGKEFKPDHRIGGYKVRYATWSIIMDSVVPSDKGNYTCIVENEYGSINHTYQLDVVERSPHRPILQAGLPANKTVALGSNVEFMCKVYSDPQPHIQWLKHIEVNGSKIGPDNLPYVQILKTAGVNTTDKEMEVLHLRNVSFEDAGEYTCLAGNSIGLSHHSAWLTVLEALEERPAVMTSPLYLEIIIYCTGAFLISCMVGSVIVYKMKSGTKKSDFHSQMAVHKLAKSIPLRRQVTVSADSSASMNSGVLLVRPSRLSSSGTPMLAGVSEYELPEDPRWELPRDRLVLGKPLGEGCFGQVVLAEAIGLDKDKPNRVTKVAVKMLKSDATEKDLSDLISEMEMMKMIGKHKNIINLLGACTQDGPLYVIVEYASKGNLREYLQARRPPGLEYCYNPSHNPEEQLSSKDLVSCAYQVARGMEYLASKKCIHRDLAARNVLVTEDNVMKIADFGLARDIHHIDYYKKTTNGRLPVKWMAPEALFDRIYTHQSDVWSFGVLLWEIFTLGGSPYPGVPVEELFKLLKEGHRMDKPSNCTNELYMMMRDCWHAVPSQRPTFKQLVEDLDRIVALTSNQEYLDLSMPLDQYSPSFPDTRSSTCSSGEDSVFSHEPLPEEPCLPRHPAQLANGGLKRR
Sequence of Dual specificity mitogen-activated protein kinase kinase 2 (Homo sapiens) (P36507 whole entry): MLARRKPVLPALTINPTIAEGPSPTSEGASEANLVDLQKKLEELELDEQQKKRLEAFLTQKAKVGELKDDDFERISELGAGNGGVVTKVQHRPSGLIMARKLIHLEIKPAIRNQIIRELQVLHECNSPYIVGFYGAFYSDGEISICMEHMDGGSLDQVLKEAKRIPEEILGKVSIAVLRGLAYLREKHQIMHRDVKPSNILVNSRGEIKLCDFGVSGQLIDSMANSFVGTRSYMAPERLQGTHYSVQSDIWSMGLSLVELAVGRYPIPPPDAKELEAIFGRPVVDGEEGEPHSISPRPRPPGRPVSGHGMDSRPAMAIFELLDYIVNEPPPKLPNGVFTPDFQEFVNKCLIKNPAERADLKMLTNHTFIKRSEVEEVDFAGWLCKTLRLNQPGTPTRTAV
Sequence of Muscarinic acetylcholine receptor M5 (Homo sapiens) (P08912 whole entry): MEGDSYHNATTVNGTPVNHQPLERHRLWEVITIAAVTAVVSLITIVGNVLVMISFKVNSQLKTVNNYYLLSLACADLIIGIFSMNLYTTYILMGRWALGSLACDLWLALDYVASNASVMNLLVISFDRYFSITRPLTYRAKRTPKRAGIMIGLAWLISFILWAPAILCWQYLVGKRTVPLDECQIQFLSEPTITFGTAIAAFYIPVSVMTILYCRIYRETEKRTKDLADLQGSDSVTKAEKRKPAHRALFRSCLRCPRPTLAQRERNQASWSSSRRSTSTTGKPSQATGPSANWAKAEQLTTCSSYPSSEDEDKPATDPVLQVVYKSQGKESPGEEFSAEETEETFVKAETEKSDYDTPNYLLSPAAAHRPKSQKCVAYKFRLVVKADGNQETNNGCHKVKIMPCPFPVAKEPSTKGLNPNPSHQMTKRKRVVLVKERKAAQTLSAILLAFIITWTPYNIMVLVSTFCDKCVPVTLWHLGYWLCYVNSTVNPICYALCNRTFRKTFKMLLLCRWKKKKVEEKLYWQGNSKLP
Sequence of 5-hydroxytryptamine receptor 2A (P28223 whole entry): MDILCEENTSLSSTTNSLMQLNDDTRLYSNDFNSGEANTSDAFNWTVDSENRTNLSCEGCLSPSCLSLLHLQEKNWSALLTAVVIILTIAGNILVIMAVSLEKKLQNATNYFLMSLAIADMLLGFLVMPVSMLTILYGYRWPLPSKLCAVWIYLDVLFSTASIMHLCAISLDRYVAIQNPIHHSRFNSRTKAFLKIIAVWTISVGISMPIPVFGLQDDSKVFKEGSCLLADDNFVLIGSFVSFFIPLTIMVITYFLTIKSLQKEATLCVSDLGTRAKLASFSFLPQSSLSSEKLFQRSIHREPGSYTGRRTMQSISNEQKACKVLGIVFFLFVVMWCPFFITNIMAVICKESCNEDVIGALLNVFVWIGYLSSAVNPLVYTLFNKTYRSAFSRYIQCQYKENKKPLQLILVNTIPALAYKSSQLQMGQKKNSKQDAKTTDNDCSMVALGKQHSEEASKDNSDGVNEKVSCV
Sequence of D(1A) dopamine receptor (P21728 whole entry): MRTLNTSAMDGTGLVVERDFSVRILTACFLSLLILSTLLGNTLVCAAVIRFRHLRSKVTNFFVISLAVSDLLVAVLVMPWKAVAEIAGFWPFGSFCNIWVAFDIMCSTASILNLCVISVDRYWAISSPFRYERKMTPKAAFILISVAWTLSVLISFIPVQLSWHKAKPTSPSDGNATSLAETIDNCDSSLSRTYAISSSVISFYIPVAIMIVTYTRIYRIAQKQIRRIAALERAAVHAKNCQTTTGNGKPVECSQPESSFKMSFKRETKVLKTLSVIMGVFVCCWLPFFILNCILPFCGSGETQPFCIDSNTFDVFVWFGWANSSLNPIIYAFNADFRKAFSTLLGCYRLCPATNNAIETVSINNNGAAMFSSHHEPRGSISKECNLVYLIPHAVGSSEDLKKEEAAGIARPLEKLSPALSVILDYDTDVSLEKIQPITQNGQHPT
Sequence of 5-hydroxytryptamine receptor 1E (P28566 whole entry): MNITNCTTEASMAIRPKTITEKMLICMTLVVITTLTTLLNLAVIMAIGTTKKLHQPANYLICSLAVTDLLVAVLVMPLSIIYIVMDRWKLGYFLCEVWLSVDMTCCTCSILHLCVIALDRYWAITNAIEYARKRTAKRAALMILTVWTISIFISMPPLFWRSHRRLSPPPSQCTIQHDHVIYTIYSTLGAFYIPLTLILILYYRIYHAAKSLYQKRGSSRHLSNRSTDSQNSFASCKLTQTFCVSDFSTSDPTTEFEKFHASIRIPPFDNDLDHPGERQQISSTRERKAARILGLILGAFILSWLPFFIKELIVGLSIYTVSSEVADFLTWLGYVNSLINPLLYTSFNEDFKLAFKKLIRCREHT
Sequence of Serine/threonine-protein kinase Chk1 (Homo sapiens) (O14757 whole entry): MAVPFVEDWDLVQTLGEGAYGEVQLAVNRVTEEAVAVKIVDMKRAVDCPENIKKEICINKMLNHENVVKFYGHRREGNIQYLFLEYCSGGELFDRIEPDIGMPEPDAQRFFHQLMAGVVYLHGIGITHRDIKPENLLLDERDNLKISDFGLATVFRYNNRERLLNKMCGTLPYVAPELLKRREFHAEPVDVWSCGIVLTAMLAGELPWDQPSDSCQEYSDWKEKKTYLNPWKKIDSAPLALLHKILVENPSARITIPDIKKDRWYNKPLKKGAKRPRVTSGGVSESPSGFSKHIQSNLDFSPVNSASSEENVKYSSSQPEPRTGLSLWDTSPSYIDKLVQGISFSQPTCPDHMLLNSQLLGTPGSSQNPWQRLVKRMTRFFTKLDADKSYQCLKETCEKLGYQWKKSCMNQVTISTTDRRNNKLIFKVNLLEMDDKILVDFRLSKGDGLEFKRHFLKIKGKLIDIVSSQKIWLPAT

CN1CCN(C(=O)C(C)(C)c2ccc(C(=O)Nc3cn4cc(-c5cc(C(C)(C)C)cc(C(C)(C)C)c5)ccc4n3)cc2)CC1 [T3-CLK-N]
Ki ([1]; read-out: Ki): 3.56 µM | Ki ([1]; read-out: pKi (converted)): 3.47 µM | inhibition [2]: 30.8% | Ki ([3]; read-out: Ki): 2.09 µM | Ki ([3]; read-out: pKi (converted)): 1.95 µM | Ki ([4]; read-out: Ki): 1.5 µM | Ki ([4]; read-out: pKi (converted)): 1.29 µM | Ki ([5]; read-out: Ki): 5.53 µM | Ki ([5]; read-out: pKi (converted)): 5.37 µM | Ki ([6]; read-out: Ki): 1.53 µM | Ki ([6]; read-out: pKi (converted)): 1.32 µM | inhibition [7]: 83.7% | inhibition [8]: 83.2% | Ki ([9]; read-out: Ki): 0.798 µM | Ki ([9]; read-out: pKi (converted)): 0.741 µM | inhibition [10]: 57% | inhibition [11]: 51.3% | IC50 [12]: > 10 µM (not active) | Ki ([13]; read-out: Ki): 2.25 µM | Ki ([13]; read-out: pKi (converted)): 1.91 µM | Ki ([14]; read-out: Ki): 1.65 µM | Ki ([14]; read-out: pKi (converted)): 1.62 µM | Ki [15]: > 10 µM | pKi [15]: < 5

CN1CCN(C(=O)C(C)(C)c2ccc(C(=O)Nc3cn4cc(-c5ccncc5)ccc4n3)cc2)CC1 [T3-CLK]
inhibition ([16]; Compound concentration 0.1 uM): 16.9% | inhibition ([16]; Compound concentration 1.0 uM): 13.8% | inhibition ([17]; Compound concentration 0.1 uM): -9.12% | inhibition ([17]; Compound concentration 1.0 uM): -7.35% | inhibition ([18]; Compound concentration 0.1 uM): 4.26% | inhibition ([18]; Compound concentration 1.0 uM): 9.19% | inhibition ([19]; Compound concentration 0.1 uM): 9.74% | inhibition ([19]; Compound concentration 1.0 uM): 18.4% | inhibition ([20]; Compound concentration 0.1 uM): 5.46% | inhibition ([20]; Compound concentration 1.0 uM): 4.24% | inhibition ([21]; Compound concentration 0.1 uM): 15.6% | inhibition ([21]; Compound concentration 1.0 uM): 11.3% | inhibition [2]: 9.31% | inhibition ([22]; Compound concentration 0.1 uM): 0.551% | inhibition ([22]; Compound concentration 1.0 uM): -3.41% | inhibition ([23]; Compound concentration 0.1 uM): -6.12% | inhibition ([23]; Compound concentration 1.0 uM): -4.71% | inhibition ([24]; Compound concentration 0.1 uM): 3.86% | inhibition ([24]; Compound concentration 1.0 uM): 25.1% | inhibition ([25]; Compound concentration 0.1 uM): 4.38% | inhibition ([25]; Compound concentration 1.0 uM): 3.75% | inhibition ([26]; Compound concentration 0.1 uM): -5.79% | inhibition ([26]; Compound concentration 1.0 uM): -4.96% | inhibition [7]: 2.61% | inhibition ([27]; Compound concentration 0.1 uM): 21.9% | inhibition ([27]; Compound concentration 1.0 uM): 24.2% | inhibition ([28]; Compound concentration 0.1 uM): -3.21% | inhibition ([28]; Compound concentration 1.0 uM): -3.11% | inhibition ([29]; Compound concentration 0.1 uM): -2% | inhibition ([29]; Compound concentration 1.0 uM): 0.493% | inhibition [8]: 4% | inhibition ([30]; Compound concentration 0.1 uM): 8.71% | inhibition ([30]; Compound concentration 1.0 uM): 17.2% | inhibition ([31]; Compound concentration 0.1 uM): -5.58% | inhibition ([31]; Compound concentration 1.0 uM): -8.53% | inhibition ([32]; Compound concentration 0.1 uM): 5.17% | inhibition ([32]; Compound concentration 1.0 uM): 9.37% | inhibition ([33]; Compound concentration 0.1 uM): 25.3% | inhibition ([33]; Compound concentration 1.0 uM): 42.4% | inhibition ([34]; Compound concentration 0.1 uM): -2.92% | inhibition ([34]; Compound concentration 1.0 uM): 4.31% | inhibition ([35]; Compound concentration 0.1 uM): 3.18% | inhibition ([35]; Compound concentration 1.0 uM): -1.48% | inhibition ([36]; Compound concentration 0.1 uM): 0.334% | inhibition ([36]; Compound concentration 1.0 uM): 3.32% | inhibition ([37]; Compound concentration 0.1 uM): 0.672% | inhibition ([37]; Compound concentration 1.0 uM): 0.93% | inhibition ([38]; Compound concentration 0.123 uM): -8.38% | inhibition ([38]; Compound concentration 1.11 uM): -2.87% | inhibition ([39]; Compound concentration 0.1 uM): 7.14% | inhibition ([39]; Compound concentration 1.0 uM): 5.32%
